Test results from publication PMC5703966, “Systemic clearance and brain distribution of carbazole-based cyanine compounds as Alzheimer’s disease drug candidates” (Scientific Reports, 2017).

Experiments:
Assay in all cases: OATP substrate identification, uptake in stably transfected HEK293 cells
OATP1B1 = biological target: T1, OATP1B1 (Homo sapiens, UniProt Q9Y6L6); conditions: 1 and 10 μM, 10 mins
T1 sequence (Q9Y6L6 1-691): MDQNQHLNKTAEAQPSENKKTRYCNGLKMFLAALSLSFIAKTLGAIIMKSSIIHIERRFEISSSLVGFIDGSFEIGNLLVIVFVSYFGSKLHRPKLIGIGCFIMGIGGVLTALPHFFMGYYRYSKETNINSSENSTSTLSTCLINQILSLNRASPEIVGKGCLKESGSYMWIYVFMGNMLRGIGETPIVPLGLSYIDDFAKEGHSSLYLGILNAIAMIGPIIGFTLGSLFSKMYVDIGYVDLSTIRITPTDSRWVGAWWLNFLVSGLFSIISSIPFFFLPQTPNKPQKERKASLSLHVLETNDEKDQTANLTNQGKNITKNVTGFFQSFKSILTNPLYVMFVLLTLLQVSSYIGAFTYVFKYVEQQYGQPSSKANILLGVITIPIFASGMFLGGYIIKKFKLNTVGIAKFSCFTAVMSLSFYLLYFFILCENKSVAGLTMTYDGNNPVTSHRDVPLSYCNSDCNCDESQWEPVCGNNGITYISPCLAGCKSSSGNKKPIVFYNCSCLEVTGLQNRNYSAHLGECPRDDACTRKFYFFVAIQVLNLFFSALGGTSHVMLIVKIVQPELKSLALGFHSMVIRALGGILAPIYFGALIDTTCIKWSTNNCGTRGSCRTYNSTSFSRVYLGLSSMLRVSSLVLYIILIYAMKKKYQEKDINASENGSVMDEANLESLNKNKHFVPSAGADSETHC
Protocol: (§1) Daily changes of medium were performed and on the second day after seeding using medium containing 10 mM sodium butyrate.
(§2) Stably transfected HEK cells and control vector-transfected HEK293 cells were first washed (3 × 1 mL) with prewarmed HBSS (pH 7.4) and then were incubated with 250 μL of HBSS containing compounds at concentrations of 1 and 10 μM. Cells were incubated for 10 mins at 37 °C for all experiments. After incubation, uptake was stopped by aspirating the incubation solution and washing each well 3 times with 200 μL of ice-old HBSS. The cells were lysed in 150 μL of 1 M NaOH for 30 mins, and then neutralized by adding equal volumes of 1 M HCl.
(§3) The following equations (3 and 4) were used to calculate the uptake rates (U, pmol/mg/min) and the OATP1B1, OATP1B3, OATP2B1 and OATP1A2 uptake ratio (UR):3 U=Clysate/P×T 4 UR=UOATP1B1/1B3/2B1/1A2/UHEK293−MOCK where C lysate is the compound concentration in cell lysates. P is the protein concentration in cell lysates. T is the incubation time. U OATP1B1/1B3/2B1/1A2 is the uptake rate obtained in HEK293 stably transfected OATP1B1, OATP1B3, OATP2B1 or OATP1A2 transportation. U HEK293-MOCK is the uptake rate obtained in control vector-transfected HEK293 transportation.

OATP1B3 = biological target: T2, OATP1B3 (Homo sapiens, UniProt Q9NPD5); conditions: 1 and 10 μM, 10 mins
T2 sequence (Q9NPD5 1-702): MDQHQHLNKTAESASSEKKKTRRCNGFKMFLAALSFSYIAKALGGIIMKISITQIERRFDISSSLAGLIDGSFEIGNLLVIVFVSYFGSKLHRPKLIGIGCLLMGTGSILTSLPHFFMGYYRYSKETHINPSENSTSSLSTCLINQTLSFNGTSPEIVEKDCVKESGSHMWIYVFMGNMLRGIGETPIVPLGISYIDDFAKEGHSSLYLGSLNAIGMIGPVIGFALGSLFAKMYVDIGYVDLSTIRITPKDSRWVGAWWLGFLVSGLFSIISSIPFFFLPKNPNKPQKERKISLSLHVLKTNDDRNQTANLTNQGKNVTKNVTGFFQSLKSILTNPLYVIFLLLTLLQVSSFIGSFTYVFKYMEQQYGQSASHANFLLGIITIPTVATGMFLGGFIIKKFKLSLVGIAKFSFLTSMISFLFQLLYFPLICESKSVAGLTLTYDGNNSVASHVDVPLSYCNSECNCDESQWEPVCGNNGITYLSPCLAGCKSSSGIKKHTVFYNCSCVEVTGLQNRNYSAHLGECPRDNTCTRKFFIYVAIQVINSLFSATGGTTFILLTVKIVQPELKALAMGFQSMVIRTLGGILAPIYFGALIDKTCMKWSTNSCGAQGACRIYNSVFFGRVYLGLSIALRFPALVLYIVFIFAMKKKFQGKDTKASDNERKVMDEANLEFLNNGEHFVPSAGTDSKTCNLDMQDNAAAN
Protocol: as §1, §2, §3

OATP2B1 = biological target: T3, OATP2B1 (Homo sapiens, UniProt O94956); conditions: for uptake in cells transfected with OATP2B1 versus WT cells: 1 and 10 μM, 10 mins
T3 sequence (O94956 1-709): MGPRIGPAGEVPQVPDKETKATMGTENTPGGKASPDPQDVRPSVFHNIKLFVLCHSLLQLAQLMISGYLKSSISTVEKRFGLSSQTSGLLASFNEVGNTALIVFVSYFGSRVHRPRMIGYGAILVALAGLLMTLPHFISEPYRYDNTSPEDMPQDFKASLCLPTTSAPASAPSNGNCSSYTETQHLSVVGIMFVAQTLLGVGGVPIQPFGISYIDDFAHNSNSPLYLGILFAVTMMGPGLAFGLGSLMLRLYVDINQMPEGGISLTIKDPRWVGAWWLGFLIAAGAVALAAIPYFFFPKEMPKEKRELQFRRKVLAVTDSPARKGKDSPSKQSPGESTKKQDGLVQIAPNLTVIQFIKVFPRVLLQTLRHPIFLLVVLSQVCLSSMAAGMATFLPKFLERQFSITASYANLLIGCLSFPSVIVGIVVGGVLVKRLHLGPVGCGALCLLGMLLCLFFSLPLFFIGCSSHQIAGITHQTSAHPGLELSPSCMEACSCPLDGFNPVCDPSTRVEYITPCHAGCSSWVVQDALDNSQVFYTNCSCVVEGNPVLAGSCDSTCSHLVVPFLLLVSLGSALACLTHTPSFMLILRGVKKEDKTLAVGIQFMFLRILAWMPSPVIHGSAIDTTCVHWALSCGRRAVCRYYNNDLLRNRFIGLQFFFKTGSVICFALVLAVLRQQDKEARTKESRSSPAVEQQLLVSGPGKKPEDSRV
Protocol: as §1, §2, §3

uptake by OATP1B1 transfected HEK293 versus WT cells (OATP1B1)	uptake by OATP1B3 transfected HEK293 versus WT cells (OATP1B3)	OATP2B1 substrate identification (OATP2B1)	uptake in cells transfected with OATP2B1 versus WT cells (OATP2B1)	Structure (SMILES)
no significant differences	no significant differences	substrates	doubled	COCCOCCn1c2ccccc2c2cc(/C=C/c3cc[n+](CCO)c4ccccc34)ccc21 [SLOH, (E)-1-(2-hydroxyethyl)-4-(2-(9-(2-(2-metho-xyethoxy)-ethyl)-9H-carbazol-3-yl)vinyl) quinolin-1-ium chloride]
no significant differences	no significant differences	substrates	doubled	COCCOCCn1c2ccccc2c2cc(/C=C/c3cc[n+](C)c4ccccc34)ccc21.[I-] [SLM, (E)-4-(2-(9-(2-(2-methoxyethoxy)ethyl)-9H-carbazol-3-yl)-vinyl)-1-methyl-quinolin-1-iumiodide]
